Columns and labels:
C. neoformans = assay: Fluconazole efficacy with azoffluxin; format: cell-based, Cryptococcus neoformans; conditions: despite increasing Nile red
Text: FIGS. 11A and 11B illustrate Nile red Accumulation in C. albicans, C. glabrata, and C. neoformans.

C. albicans (SN95) = assay: Azoffluxin dose-response with background fluconazole; format: cell-based, Candida albicans; conditions: fluconazole-sensitive laboratory strain SN95, background FLC 4 μg/mL
Protocol: (§1) FIGS. 2A-2E illustrate the above-described screening of the BU-CMD which identified azoffluxin as a fluconazole (FLC) potentiator against C. auris. […] Growth, as determined by optical density at 600 nm (OD600), is plotted in the presence of each CMD compound alone on the y-axis and in combination with FLC on the x-axis. Dotted lines represent 7-median absolute deviations from the median for each condition. […] FIG. 2B depicts the synergistic interactions. […] Growth was measured by the OD600 and normalized to the no drug control (see color bar). The fractional inhibitory concentration index (FICI) was calculated to determine the chemical interaction, with a value below 0.5 indicating synergy. […] FIG. 2D depicts FLC Etest strips in the presence and absence of 50 μM azoffluxin. […]
(§2) Compound potency was assessed alone by dose response assays or in combination with another compound by dose-response matrixes in 96-well plates, or 384-well, flat-bottom, microtiter plates (Corning) as previously described. […] Growth was quantified by measuring OD600 and corrected for medium background. All strains were assessed in biological duplicate experiments with technical duplicates. […] For dose-response matrixes fractional inhibitory concentration index at 90% growth inhibition (FICI90) was calculated as previously described. […]

[1] = Stability and activity in plasma; format: in vitro ADME
C. glabrata (BG2) = assay: Azoffluxin dose-response with background fluconazole; format: cell-based, Candida glabrata
Protocol: as §1, §2

C. auris efflux = assay: Nile red accumulation assay (flow cytometry); format: cell-based, Candida auris
Protocol: FIGS. 5A, 5B and 6 illustrate that azoffluxin increases fluconazole (FLC) bioavailability by inhibiting Cdr1-mediated efflux in C. auris. FIG. 5A show C. auris strains grown to exponential phase and treated with 50 μM azoffluxin for 10 minutes when indicated, followed by addition of Nile red for 20 minutes. Cells were then imaged on the DIC and DsRed channels at equivalent exposure times. FIG. 5B: depicts a flow cytometer and histograms of the cells, showing the fluorescence on the PE channel per event for ˜20,000 events. […] FIG. 6 illustrates azoffluxin increases fluconazole (FLC) bioavailability by inhibiting Cdr1-mediated efflux in C. auris. Dose response assays were conducted with a C. auris parental strain, a strain with the efflux pump gene CDR1 deleted, and a strain with the efflux pump CDR4-1 deleted. FLC was titered in a two-fold dilution on the x-axis in the absence and presence of 50 μM azoffluxin. Growth was measured at 48 hours using OD600 and normalized to a no drug control well (see color bar).
Cellular efflux was determined by measuring Nile red accumulation, as previously described. Cells were subcultured from an OD600 0.1 in YPD for 4 hours until exponential phase was reached. […] To quantify fluorescence, a CytoFlex Flow Cytometer (Beckman Coulter) was used. […] Each sample was run using the CytExpert Software until ˜20,000 events had been recorded. […]

MDR1 (ABCB1) = molecular target: T1, MDR1 (ABCB1) (Homo sapiens, UniProt P08183); assay: Rhodamine 6G accumulation in MDR1-overexpressing HEK293 cells (flow cytometry); format: cell-based, mammalian
T1 construct: expressed in transfected cells; host or cells: HEK293
T1 sequence (P08183 whole entry): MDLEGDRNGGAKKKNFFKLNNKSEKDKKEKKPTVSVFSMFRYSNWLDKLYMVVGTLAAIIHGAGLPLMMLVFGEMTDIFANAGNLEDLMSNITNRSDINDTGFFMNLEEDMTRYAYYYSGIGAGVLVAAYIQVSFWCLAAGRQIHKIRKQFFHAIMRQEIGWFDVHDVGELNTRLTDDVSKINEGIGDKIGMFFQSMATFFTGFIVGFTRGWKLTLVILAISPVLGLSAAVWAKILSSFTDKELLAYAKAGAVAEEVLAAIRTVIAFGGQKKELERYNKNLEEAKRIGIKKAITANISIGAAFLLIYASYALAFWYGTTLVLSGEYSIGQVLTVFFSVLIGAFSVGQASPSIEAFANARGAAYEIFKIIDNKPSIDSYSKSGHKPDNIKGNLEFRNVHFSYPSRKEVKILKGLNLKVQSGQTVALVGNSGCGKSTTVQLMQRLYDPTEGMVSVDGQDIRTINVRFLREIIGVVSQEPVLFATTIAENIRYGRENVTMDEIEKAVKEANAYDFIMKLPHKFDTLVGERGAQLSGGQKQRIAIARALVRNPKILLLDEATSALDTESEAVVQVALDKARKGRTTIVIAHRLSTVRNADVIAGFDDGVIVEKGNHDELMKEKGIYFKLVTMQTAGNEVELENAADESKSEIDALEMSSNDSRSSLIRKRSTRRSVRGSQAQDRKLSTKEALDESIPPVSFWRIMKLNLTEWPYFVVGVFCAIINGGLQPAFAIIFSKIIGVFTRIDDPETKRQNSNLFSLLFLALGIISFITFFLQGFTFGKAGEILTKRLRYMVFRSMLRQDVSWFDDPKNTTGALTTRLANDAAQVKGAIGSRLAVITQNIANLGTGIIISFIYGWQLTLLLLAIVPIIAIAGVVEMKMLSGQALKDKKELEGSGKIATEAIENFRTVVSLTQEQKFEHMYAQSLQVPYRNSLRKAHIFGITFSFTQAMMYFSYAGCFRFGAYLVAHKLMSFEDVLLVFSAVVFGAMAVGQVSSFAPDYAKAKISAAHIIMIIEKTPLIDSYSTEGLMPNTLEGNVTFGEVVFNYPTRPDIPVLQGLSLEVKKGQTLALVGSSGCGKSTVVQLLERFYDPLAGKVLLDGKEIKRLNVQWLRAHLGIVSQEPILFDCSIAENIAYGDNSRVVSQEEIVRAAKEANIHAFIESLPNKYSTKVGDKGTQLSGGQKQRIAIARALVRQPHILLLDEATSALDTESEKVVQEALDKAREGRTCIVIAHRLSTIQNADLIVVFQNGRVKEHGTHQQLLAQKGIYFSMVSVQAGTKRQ
Protocol: P-gp overexpressing HEK293 cell lines were used to determine if azoffluxin treatment leads to a greater accumulation of fluorescent substrates (MFI) as determined by flow cytometry.
MDR1 (ABCB1) and MRP1 (ABCC1) was assessed using the fluorescent dyes rhodamine 6G (0.5 μg/mL) and Calcein AM (2.5 μg/mL), for each pump respectively, and the known inhibitor controls tariquidar (60 nM) and MK571 (30 μM) for each pump respectively. Listed data is shown by FIG. 12E (R6G) and FIG. 12F (Cal).

C=C(C)C[C@@H](O)COc1cc2c(cc1C1(c3cc4c(cc3OC[C@H](O)CC(=C)C)OCO4)C(=O)Nc3cc(F)ccc31)OCO2 [CMLD012336]
enhancement of fluconazole efficacy (C. neoformans): did not enhance the efficacy of fluconazole
enhancement of fluconazole activity (C. albicans (SN95)): did not enhance the activity of fluconazole
stability in plasma [1]: stable and retains activity in plasma
enhancement of fluconazole efficacy (C. glabrata (BG2); C. glabrata, despite increasing Nile red): did not enhance the efficacy of fluconazole
enhancement of fluconazole activity (C. glabrata (BG2); fluconazole-sensitive laboratory strain BG2, background FLC 0.25 μg/mL): did not enhance the activity of fluconazole
increase in relative cell-associated Nile red signal (C. auris efflux; 50 μM azoffluxin, C. auris Ci6684): 42 fold
increase in Nile red accumulation (C. auris efflux; Clade III isolates B11221 and B11222): 36-40 fold
dye accumulation in control cDNA cells (MDR1 (ABCB1)): no effect

Source: US11773086B2, “Fungal modulators” (TRUSTEES OF BOSTON UNIVERSITY, priority 2020, dated 2023)
